{"source": "patent US4657928A", "about": "“Organic copper complexes as radioprotectants” (priority 1984, dated 1987)", "key": {"[1]": {"assay": "SOD-like activity: inhibition of superoxide reduction of nitroblue tetrazolium (DMSO-KO2 / xanthine-xanthine oxidase)", "assay_type": "biochemical", "settings": "for IC50 / Percent Reactivity (SOD-like activity): Table I; for IC50: read-out: Concentration: compound required for 50% inhibition of superoxide reduction of nitroblue tetrazolium; for Percent Reactivity (SOD-like activity): relative to Cu-Zn SOD = 100"}, "[2]": {"settings": "cited from earlier work"}, "[3]": {"settings": "pH 7.0; cited from earlier work"}, "[4]": {"settings": "pH 12; cited from earlier work"}, "patients": {"test_system": "patients", "settings": "ongoing clinical trials; cited from earlier work"}, "human beings": {"test_system": "human beings", "assay": "Predicted toxicity in human beings by extrapolation", "settings": "per body weight", "description": "(§1) The particular embodiment described in complete detail herein concerns the use of Cu(II)(3,5-dips)2. […] A minimum prophylatic dose would be about 0.001 mg/kg, while a therapeutic dose would range from about 1 mg to 100 mg/kg, depending upon the radiation dose. Therapeutic doses would be initiated about two weeks before radiotherapy, and would continue as necessary after the radiation treatment. For cases of accidental exposure, treatment would be initiated immediately after exposure and continued as necessary thereafter. Prophylactic doses would be taken on a continuing basis, for example a daily basis, as long as the recurrent radiation exposure continued. In any of these cases, the route of administration might be oral, topical, rectal or parenteral (e.g., intramuscular, intravenous, subcutaneous, or intraperitoneal)."}, "[5]": {"assay": "Rate of superoxide dismutation", "assay_type": "biochemical", "settings": "Table I", "from_the_text": "The enzyme superoxide dismutase (SOD) plays a significant role in the defense against oxygen toxicity in aerobic organisms. Superoxide dismutase catalyzes the dismutation of O2^-, as follows:.\n2 ^- O-O^. +2H^+ →H2 O2 +^. O-O^.\n**Weser, et al., In \"Inflammatory Diseases and Copper\", Sorenson (ed.),\nHumana Press: Clifton, New Jersey (1982), p. 513"}, "lethally irradiated mice": {"test_system": "lethally irradiated mice", "assay": "Radioprotection: survival of lethally irradiated (60Co) mice", "assay_type": "in vivo, female B6CBFl mice", "description": "One group of 22-control and two groups of 24-treated 8 to 10 week old female B6CBFl mice (Cumberland View Farms, Clinton, Tennessee) were used. Control animals were given a subcutaneous (sc) injection of 0.3 ml of vehicle (0.25% Tween 80 in 0.9% pyrogen-free sterile saline) 24 hours before irradiation. One treatment group was given a single sc injection of 0.49 mM/kg of Cu(II)(3,5-dips)2 in 0.3 ml of vehicle 3 hours before irradiation and the other group was given the same treatment 24 hours before irradiation.\nThis radiation dose was measured with an electrometer connected to 0.05 ml NBS calibrated ion chambers positioned inside wax phantom mice placed in plexiglass cages. The tissue to air ratio for these phantom mice has been determined to be 97 percent. Control and treated mice were housed 5 mice per cage and fed mouse chow and water ad libitum for the 30 day observation period."}, "mice": {"test_system": "mice", "assay": "Acute toxicity in mice (subcutaneous)", "assay_type": "in vivo", "settings": "subcutaneous injection, 10080 min", "description": "as §1"}, "rats": {"test_system": "rats", "assay": "Acute toxicity in rats (subcutaneous)", "assay_type": "in vivo", "description": "as §1\nCopper 3,5-diisopropylsalicylate was synthesized according to the method of Sorenson, J. Med. Chem. 19:135 (1976), which is incorporated herein by reference."}, "[6]": {"settings": "0.49 mM/kg sc 3 hours before 10 Gy, 30 day observation"}, "[7]": {"settings": "0.49 mM/kg sc 24 hours before 10 Gy, 30 day observation"}}, "note": "Read-outs that look alike come from different tables or passages of the source.", "data": [{"compound": "CC(=O)Oc1ccccc1C(=O)[O-].CC(=O)Oc1ccccc1C(=O)[O-].CC(=O)Oc1ccccc1C(=O)[O-].CC(=O)Oc1ccccc1C(=O)[O-].CS(C)=O.CS(C)=O.[Cu+2].[Cu+2]", "note": "[Cu(II)2 (acetylsalicylate)4 (DMSO)2]", "values": [{"measurement": "IC50", "setting": "[1]", "value": 2800, "unit": "nM"}, {"measurement": "Percent Reactivity (SOD-like activity)", "setting": "[1]", "value": 0.69, "unit": "%"}]}, {"compound": "CC(=O)Oc1ccccc1C(=O)[O-].CC(=O)Oc1ccccc1C(=O)[O-].CC(=O)Oc1ccccc1C(=O)[O-].CC(=O)Oc1ccccc1C(=O)[O-].CS(C)=O.CS(C)=O.CS(C)=O.CS(C)=O.[Cu+2].[Cu+2]", "note": "[Cu(II)2 (acetylsalicylate)4 (dimethylsulfoxide)4]", "values": [{"measurement": "superoxide scavenging (in words)", "setting": "[1]", "value": "superoxide scavengers"}]}, {"compound": "CC(=O)Oc1ccccc1C(=O)[O-].CC(=O)Oc1ccccc1C(=O)[O-].CC(=O)Oc1ccccc1C(=O)[O-].CC(=O)Oc1ccccc1C(=O)[O-].[Cu+2].[Cu+2].c1ccncc1.c1ccncc1", "note": "[Cu(II)2 (acetylsalicylate)4 (pyridine)2]", "values": [{"measurement": "IC50", "setting": "[1]", "value": 2700, "unit": "nM"}, {"measurement": "Percent Reactivity (SOD-like activity)", "setting": "[1]", "value": 0.32, "unit": "%"}]}, {"compound": "CC(=O)Oc1ccccc1C(=O)[O-].CC(=O)Oc1ccccc1C(=O)[O-].CC(=O)Oc1ccccc1C(=O)[O-].CC(=O)Oc1ccccc1C(=O)[O-].[Cu+2].[Cu+2].c1ccncc1.c1ccncc1.c1ccncc1.c1ccncc1", "note": "[Cu(II)2 (acetylsalicylate)4 (pyridine)4]", "values": [{"measurement": "superoxide scavenging (in words)", "setting": "[1]", "value": "superoxide scavengers"}]}, {"compound": "CC(C)(C)c1cc(C(=O)[O-])c(O)c(C(C)(C)C)c1.CC(C)(C)c1cc(C(=O)[O-])c(O)c(C(C)(C)C)c1.[Cu+2]", "note": "[Cu(II)(3,5-ditertiarybutylsalicylate)2]", "values": [{"measurement": "superoxide scavenging (in words)", "setting": "[1]", "value": "superoxide scavengers"}, {"measurement": "IC50", "setting": "[1]", "value": 6200, "unit": "nM"}, {"measurement": "Percent Reactivity (SOD-like activity)", "setting": "[1]", "value": 0.74, "unit": "%"}]}, {"compound": "O=C(O)c1ccccc1[O-].O=C(O)c1ccccc1[O-].[Cu+2]", "note": "[Cu(II)(salicylate)2]", "values": [{"measurement": "superoxide scavenging (in words)", "setting": "[1]", "value": "superoxide scavengers"}, {"measurement": "IC50", "setting": "[1]", "value": 4600, "unit": "nM"}, {"measurement": "Percent Reactivity (SOD-like activity)", "setting": "[1]", "value": 0.65, "unit": "%"}, {"measurement": "Rate of superoxide dismutation", "setting": "[2]; Table I, footnote ** (Weser et al.)", "value": 1.6, "unit": "× 10 M^-1 s^-1"}]}, {"compound": "O=C([O-])CN(CCN(CC(=O)[O-])CC(=O)O)CC(=O)O.[Na+].[Na+]", "note": "[Na2 EDTA]", "values": [{"measurement": "Rate, Cu(II)(L)2 + HO^.", "setting": "[3]", "value": "4e+09", "unit": "M⁻¹ s⁻¹"}, {"measurement": "Rate, Cu(II)(L)2 + e^- aq", "setting": "[4]", "value": "1e+10", "unit": "M⁻¹ s⁻¹"}]}, {"compound": "NCCCNCCSP(=O)(O)O", "note": "[WR2721, S-2-(3-aminopropylamino) ethyl-phosphorothioic acid]", "values": [{"measurement": "undesirable side effects", "setting": "patients", "value": "emesis, hypertension, hypotension, somnolence and allergy"}]}, {"compound": "Cu(II)2 (acetylsalicylate)4", "values": [{"measurement": "superoxide scavenging (in words)", "setting": "[1]", "value": "superoxide scavengers"}, {"measurement": "IC50", "setting": "[1]", "value": 3100, "unit": "nM"}, {"measurement": "Percent Reactivity (SOD-like activity)", "setting": "[1]", "value": 0.043, "unit": "%"}]}, {"compound": "bovine SOD: pure bovine SOD", "values": [{"measurement": "sensitivity of the assay, ug SOD per unit of activity", "setting": "[1]; pure bovine SOD, per unit of activity, pH 7.8", "value": 0.85, "unit": "µg"}]}, {"compound": "copper 3,5-diisopropylsalicylate [Cu(II)(3,5-dips)2]", "values": [{"measurement": "predicted LD50 in human beings", "setting": "human beings", "value": "approximately 250 mg/kg"}, {"measurement": "superoxide scavenging (in words)", "setting": "[1]", "value": "superoxide scavengers"}, {"measurement": "IC50", "setting": "[1]", "value": 2900, "unit": "nM"}, {"measurement": "efficiency in disproportionating superoxide compared with Cu-Zn SOD (in words)", "setting": "[1]; based on Table I", "value": "not as efficient as Cu-Zn SOD"}, {"measurement": "mean SOD activity", "setting": "[1]; modified assay, DMSO-KO2, pH 7.8", "value": "17,400±1,800 units per milligram"}, {"measurement": "Percent Reactivity (SOD-like activity)", "setting": "[1]", "value": 0.70, "unit": "%"}, {"measurement": "Rate of superoxide dismutation", "setting": "[5]", "value": "1e+09 to 2e+09", "unit": "M⁻¹ s⁻¹"}, {"measurement": "day post-irradiation after which none died", "setting": "lethally irradiated mice; 0.49 mM/kg sc 3 hours before 10 Gy", "value": 18, "unit": "days"}, {"measurement": "number of surviving mice", "setting": "lethally irradiated mice; [6]", "value": 8, "unit": "mice"}, {"measurement": "survival", "setting": "lethally irradiated mice; [6]", "value": "Thirty-three"}, {"measurement": "day post-irradiation after which none died", "setting": "lethally irradiated mice; 0.49 mM/kg sc 24 hours before 10 Gy", "value": 19, "unit": "days"}, {"measurement": "number of surviving mice", "setting": "lethally irradiated mice; [7]", "value": 14, "unit": "mice"}, {"measurement": "survival", "setting": "lethally irradiated mice; [7]", "value": "Fifty-eight"}, {"measurement": "survival", "setting": "lethally irradiated mice; pretreatment interval 3 h, restated in comparison with Cu-Zn SOD", "value": 33, "unit": "%"}, {"measurement": "survival", "setting": "lethally irradiated mice; pretreatment interval 24 h, restated in comparison with Cu-Zn SOD", "value": 58, "unit": "%"}, {"measurement": "survivors", "setting": "lethally irradiated mice; similarly treated mice, irradiated with 12 Gy", "value": "no survivors"}, {"measurement": "protection compared with Cu-Zn SOD (in words)", "setting": "lethally irradiated mice; vs Cu-Zn SOD data of Petkau, different conditions", "value": "much greater protection"}, {"measurement": "LD50/7", "setting": "mice", "value": "at least 280 mg/kg"}, {"measurement": "LD50", "setting": "rats; subcutaneous", "value": "240 +33 mg/kg"}, {"measurement": "LD50/7", "setting": "rats; subcutaneous injection, 10080 min", "value": 240, "unit": "mg/kg"}]}, {"compound": "superoxide dismutase: enzyme that catalyzes the dismutation of O2^-; native SOD has a molecular weight of about 32,000 daltons", "values": [{"measurement": "rate of O2^- dismutation, k", "setting": "[2]; Czapski 1971", "value": "1.3e+09", "unit": "M⁻¹ s⁻¹"}]}]}
